# Data reported in publication PMC9249674, “A small-molecule Skp1 inhibitor elicits cell death by p53-dependent mechanism” (iScience, 2022).
# Assays:
# ΔSkp1^1−140 = target: T1, ΔSkp1^1−140 (Homo sapiens, UniProt P63208); test: SPRi assay; format: binding
# T1 construct: pETDuet-Skp1(1-140); His6; made in house; host or cells: Escherichia coli BL21 (DE3)
# Procedure: Freshly deposited gold coated standard SPRi chips/slides (Plexera, LLC) were cleaned, and compound(s) at 10 mM concentration in 100% DMSO were spotted on the chips using a micropipette. After this, the slides were left for complete evaporation of DMSO (under vacuum) at room temperature for 2 hrs. […] The slides were subsequently washed with DMSO, ethanol, and finally with distilled water for 15 minutes (ultrasonically), respectively, to remove non-covalently bound compounds. After drying with nitrogen, the slides were assembled with flow cell and then mounted on SPRi instrument for measurement, or stored at 4°C to be used for later experiments.
# All the experiments were carried out using the PlexArray® HT system (Plexera, LLC), which is based on surface plasmon resonance imaging. Oval regions of interests (ROIs) were set as 9 pixels × 7 pixels area in imaging area. ROIs of vehicle (DMSO) were used as controls for measurement of specific signals. […] A 1:3 mixture of glycine. HCL (pH 4.2) and 0.5% (v/v) SDS, respectively, was used to regenerate the surface and remove bound proteins from the small molecules enabling the sensor chip to be reused for additional analyte injections.
# The Tris buffer (10 mM Tris-HCl pH 8.0, 100 mM NaCl), without any reducing agent, was used as both analyte and running buffer. […]
# Skp1^F139A = target: T2, Skp1^F139A (Homo sapiens, UniProt P63208, F139A); test: LC-MS/MS analysis of in vitro binding; details: Skp1^F139A mutant, overnight incubation
# T2 construct: His6; made in house; host or cells: Escherichia coli BL21 (DE3)
# T2 sequence (P63208 whole entry F139A): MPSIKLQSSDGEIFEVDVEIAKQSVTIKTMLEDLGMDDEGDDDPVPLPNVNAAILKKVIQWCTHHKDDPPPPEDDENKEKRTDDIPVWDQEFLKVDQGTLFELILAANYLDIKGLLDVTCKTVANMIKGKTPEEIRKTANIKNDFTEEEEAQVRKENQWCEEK
# 22RV1 = test: Cell viability assay (Cell-Titer GLO); format: cell-based; details: Homo sapiens, Prostate cancer, 48 hrs, read-out: Anti-proliferative EC50
# Procedure: (§1) For cell viability, cells were seeded in 384 opaque-walled plates with clear bottoms at 300–500 cells per well (optimum density for growth) in a total volume of 20 μL of media. The media was according to culture conditions of each individual cell line (mentioned above). After 12 hrs, compounds were added in a total volume of 5 μL of media (two-fold diluted) to each well with final concentrations from 5 nM to 30 μM. The measurements were conducted 48 hrs after seeding of the cells. Then, 25 μL of Cell-Titer GLO reagent (Promega) was added, and luminescence was measured on an EnSpire multimode plate reader (PerkinElmer), according to the manufacturer’s instructions. The estimated in vitro half-maximal inhibitory concentration (EC50) values were calculated using GraphPad Prism® v6.0 (San Diego, CA) software. The cell viability for A549 cells was also performed for 72- and 96-hrs by using the same experimental conditions as described above.
# 95D = test: Cell viability assay (Cell-Titer GLO); format: cell-based; details: Lung cancer, 48 hrs, read-out: Anti-proliferative EC50
# Procedure: as §1
# A431 = test: Cell viability assay (Cell-Titer GLO); format: cell-based; details: Homo sapiens, A-431; A431^c; Skin carcinoma; p53 null or mutant cancer cell lines; 48 hrs; read-out: Anti-proliferative EC50
# Procedure: as §1
# C4-2B = test: Cell viability assay (Cell-Titer GLO); format: cell-based; details: Prostate cancer, 48 hrs, read-out: Anti-proliferative EC50
# Procedure: as §1
# Du145 = test: Cell viability assay (Cell-Titer GLO); format: cell-based; details: Homo sapiens, DU-145, Prostate cancer, 48 hrs, read-out: Anti-proliferative EC50
# Procedure: as §1
# H1299 = test: Cell viability assay (Cell-Titer GLO); format: cell-based; details: Homo sapiens, NCI-H1299; H1299^b; Lung cancer; p53 null or mutant cancer cell lines; 48 hrs; read-out: Anti-proliferative EC50
# Procedure: as §1
# H1650 = test: Cell viability assay (Cell-Titer GLO); format: cell-based; details: Homo sapiens, NCI-H1650, Lung cancer, 48 hrs, read-out: Anti-proliferative EC50
# Procedure: as §1
# H358 = test: Cell viability assay (Cell-Titer GLO); format: cell-based; details: Homo sapiens, NCI-H358; H358^b; Lung cancer; p53 null or mutant cancer cell lines; 48 hrs; read-out: Anti-proliferative EC50
# Procedure: as §1
# H460 = test: Cell viability assay (Cell-Titer GLO); format: cell-based; details: Homo sapiens, NCI-H460, Lung cancer, 48 hrs, read-out: Anti-proliferative EC50
# Procedure: as §1
# HCT116 = test: Cell viability assay (Cell-Titer GLO); format: cell-based; details: Homo sapiens, HCT-116, Colon carcinoma, 48 hrs, read-out: Anti-proliferative EC50
# Procedure: as §1
# Hela = test: Cell viability assay (Cell-Titer GLO); format: cell-based; details: Homo sapiens, Cervical cancer, 48 hrs, read-out: Anti-proliferative EC50
# Procedure: as §1
# HepG2 = test: Cell viability assay (Cell-Titer GLO); format: cell-based; details: Homo sapiens, Liver cancer, 48 hrs, read-out: Anti-proliferative EC50
# Procedure: as §1
# Hs578T = test: Cell viability assay (Cell-Titer GLO); format: cell-based; details: Homo sapiens, Hs-578T, Breast cancer, 48 hrs, read-out: Anti-proliferative EC50
# Procedure: as §1
# Huh-7 = test: Cell viability assay (Cell-Titer GLO); format: cell-based; details: Homo sapiens, Liver cancer, 48 hrs, read-out: Anti-proliferative EC50
# Procedure: as §1
# K562 = test: Cell viability assay (Cell-Titer GLO); format: cell-based; details: Homo sapiens, Leukemia, 48 hrs, read-out: Anti-proliferative EC50
# Procedure: as §1
# LNCaP = test: Cell viability assay (Cell-Titer GLO); format: cell-based; details: Homo sapiens, Prostate cancer, 48 hrs, read-out: Anti-proliferative EC50
# Procedure: as §1
# MCF-7 = test: Cell viability assay (Cell-Titer GLO); format: cell-based; details: Homo sapiens, MCF7, Breast cancer, 48 hrs, read-out: Anti-proliferative EC50
# Procedure: as §1
# MDA-MB-231 = test: Cell viability assay (Cell-Titer GLO); format: cell-based; details: Homo sapiens, Breast cancer, 48 hrs, read-out: Anti-proliferative EC50
# Procedure: as §1
# MGC-803 = test: Cell viability assay (Cell-Titer GLO); format: cell-based; details: Homo sapiens; MGC-803^c; Gastric cancer; p53 null or mutant cancer cell lines; 48 hrs; read-out: Anti-proliferative EC50
# Procedure: as §1
# MKN-7 = test: Cell viability assay (Cell-Titer GLO); format: cell-based; details: Homo sapiens; MKN-7^c; Gastric cancer; p53 null or mutant cancer cell lines; 48 hrs; read-out: Anti-proliferative EC50
# Procedure: as §1
# U2OS = test: Cell viability assay (Cell-Titer GLO); format: cell-based; details: Homo sapiens, Osteosarcoma, 48 hrs, read-out: Anti-proliferative EC50
# Procedure: as §1
# βTC6 = test: Cell viability assay (Cell-Titer GLO); format: cell-based; details: βTC6^a; Pancreatic insulinoma; 48 hrs; read-out: Anti-proliferative EC50
# Procedure: as §1
# recombinant GST = recombinant GST (Schistosoma japonicum, UniProt P08515); test: LC-MS/MS analysis of in vitro binding, negative control protein
# Chain of recombinant GST (P08515 2-218 limits assumed): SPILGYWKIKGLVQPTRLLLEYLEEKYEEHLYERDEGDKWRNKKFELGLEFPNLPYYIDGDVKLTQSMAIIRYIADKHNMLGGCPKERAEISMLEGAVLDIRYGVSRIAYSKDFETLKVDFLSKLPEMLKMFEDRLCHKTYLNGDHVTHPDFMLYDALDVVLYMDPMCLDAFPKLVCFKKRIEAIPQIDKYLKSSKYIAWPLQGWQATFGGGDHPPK
# T1 sequence (P63208 1-140, stated change not applied): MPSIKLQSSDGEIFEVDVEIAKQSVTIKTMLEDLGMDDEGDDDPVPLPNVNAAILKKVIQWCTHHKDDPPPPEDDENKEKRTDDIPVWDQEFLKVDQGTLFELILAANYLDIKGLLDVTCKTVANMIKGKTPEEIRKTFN
smiles,measurement,setting,value
Nc1ccc(-c2nc3ccccc3c3[nH]c4ccccc4c23)cc1 [Z0933M],Kd,ΔSkp1^1−140,40.4 ± 8.2 nM
same,binding by LC-MS/MS,Skp1^F139A,markedly reduced
same,EC50,22RV1,1110 ± 100 nM
same,EC50,95D,3.14 ± 0.26 µM
same,EC50,A431,> 30 µM
same,EC50,C4-2B,1900 ± 70 nM
same,EC50,Du145,250 ± 20 nM
same,EC50,H1299,11.5 ± 0.21 µM
same,EC50,H1650,2350 ± 450 nM
same,EC50,H358,14.9 ± 0.42 µM
same,EC50,H460,2690 ± 70 nM
same,EC50,HCT116,2820 ± 330 nM
same,EC50,Hela,360 ± 60 nM
same,EC50,HepG2,4.08 ± 0.95 µM
same,EC50,Hs578T,2490 ± 70 nM
same,EC50,Huh-7,3.6 ± 0.81 µM
same,EC50,K562,735 ± 30 nM
same,EC50,LNCaP,880 ± 30 nM
same,EC50,MCF-7,1460 ± 10 nM
same,EC50,MDA-MB-231,2900 ± 630 nM
same,EC50,MGC-803,> 30 µM
same,EC50,MKN-7,> 30 µM
same,EC50,U2OS,970 ± 90 nM
same,EC50,βTC6,370 ± 7 nM
same,presence in mass spectra (non-specific binding),recombinant GST,absent
